The values below come from patent publication US5219874A, “Heterocyclic acids” (Imperial Chemical Industries PLC, priority 1991, dated 1993).

Assay [1] has as its target T1, U46619 stimulated platelet aggregation (Homo sapiens, UniProt P21731).
T1 construct: aggregating human, citrated, platelet-rich plasma; endogenous in cells; host or cells: human platelets in citrated platelet-rich plasma
T1 sequence (P21731 1-343): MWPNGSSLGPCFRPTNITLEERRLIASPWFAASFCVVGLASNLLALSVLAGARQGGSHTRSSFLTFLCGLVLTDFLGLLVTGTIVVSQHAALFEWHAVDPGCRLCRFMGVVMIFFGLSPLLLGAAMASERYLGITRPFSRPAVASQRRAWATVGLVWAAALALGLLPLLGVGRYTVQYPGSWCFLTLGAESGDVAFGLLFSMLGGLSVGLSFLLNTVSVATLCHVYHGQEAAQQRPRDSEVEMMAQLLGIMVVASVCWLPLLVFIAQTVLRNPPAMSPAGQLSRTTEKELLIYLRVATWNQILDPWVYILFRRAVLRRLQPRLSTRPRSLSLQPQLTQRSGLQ
The assay can be described thus: test (b): blood platelet aggregation test, TXA2 antagonism against U46619. It is filed as cell-based. The following applies: human platelet-rich plasma; agonist U46619; read-out: pA2, test (b) (converted). The text has this: (b) a blood platelet aggregation test based on that described by Born (Nature, 1962, 194, 927-929) and involving:
(i) aggregating human, citrated, platelet-rich plasma by addition of the TXA2 mimetic agent U46619 so that a dose-response curve is generated;
(ii) generating a dose-response curve for U46619 stimulated platelet aggregation in the presence of increasing amounts of test compound (generally in the range 10^-5 M to 10^-10 M); and
(iii) calculating a pA2 value indicating potency of TXA2 antagonism for the test compound, averaged over several concentrations, from the calculated 50% response value for U46619 aggregation in the presence and absence of test compound; or […]

Assay [2] deals with T2, TXA2 synthase (Homo sapiens, UniProt P24557).
T2 construct: using a human platelet microsomal TXA2 synthase preparation; from tissue; host or cells: human platelet microsomes
T2 sequence (P24557 1-533): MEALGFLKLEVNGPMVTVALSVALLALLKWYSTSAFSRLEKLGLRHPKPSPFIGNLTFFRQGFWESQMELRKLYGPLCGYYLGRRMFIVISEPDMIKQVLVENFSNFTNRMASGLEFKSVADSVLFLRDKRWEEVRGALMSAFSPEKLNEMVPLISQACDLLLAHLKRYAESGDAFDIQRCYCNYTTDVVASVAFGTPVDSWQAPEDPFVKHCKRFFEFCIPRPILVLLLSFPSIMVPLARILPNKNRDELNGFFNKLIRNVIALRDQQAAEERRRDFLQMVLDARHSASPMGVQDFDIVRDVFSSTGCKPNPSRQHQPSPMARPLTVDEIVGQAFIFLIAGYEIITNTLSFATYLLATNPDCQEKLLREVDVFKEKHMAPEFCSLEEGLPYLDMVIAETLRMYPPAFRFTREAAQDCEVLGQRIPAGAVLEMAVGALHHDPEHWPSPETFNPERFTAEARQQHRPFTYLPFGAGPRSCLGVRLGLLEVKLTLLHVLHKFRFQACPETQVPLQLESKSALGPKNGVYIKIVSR
The assay can be described thus: test (e): TXA2 synthase inhibition in human platelet microsomal preparation. The format is biochemical. The note with it: [1-^14 C]arachidonic acid.

The target of assay [3] is T3, prostacyclin synthase (Homo sapiens, UniProt Q16647).
T3 construct: obtaining cultured human endothelial cells from unbilical vein; endogenous in cells; host or cells: cultured human umbilical vein endothelial cells
T3 sequence (Q16647 1-500): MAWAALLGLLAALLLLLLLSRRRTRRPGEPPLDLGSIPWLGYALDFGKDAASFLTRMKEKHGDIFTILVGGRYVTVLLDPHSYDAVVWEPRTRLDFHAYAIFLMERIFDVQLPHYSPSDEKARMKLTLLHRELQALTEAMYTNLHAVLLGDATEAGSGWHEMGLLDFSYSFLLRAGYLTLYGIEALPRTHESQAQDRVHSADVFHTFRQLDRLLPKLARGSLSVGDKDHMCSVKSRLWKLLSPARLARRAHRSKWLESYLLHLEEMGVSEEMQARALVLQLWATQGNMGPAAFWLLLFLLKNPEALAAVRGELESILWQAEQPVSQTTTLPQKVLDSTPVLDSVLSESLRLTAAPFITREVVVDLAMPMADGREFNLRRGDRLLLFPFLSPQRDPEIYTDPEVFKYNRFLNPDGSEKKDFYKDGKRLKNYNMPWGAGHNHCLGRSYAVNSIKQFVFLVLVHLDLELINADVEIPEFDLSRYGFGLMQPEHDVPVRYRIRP
In words: test (g): prostacyclin synthase inhibition in cultured human endothelial cells (6-oxoPGF1a radioimmunoassay). The format is cell-based. The method, then:
The growth medium is aspirated from the wells and the endothelial cell monolayers are washed twice with alquots of medium (1 ml, Earls 199 medium) containing vehicle or compound. The monolayers are first incubated with medium containing vehicle or compound for 30 minutes at 37° C. Arachidonic acid (10 micro M) is added to the medium and the monolayers are incubated for a further 2 hours with a fresh aliquot of medium. The incubation is terminated by aspiration of the medium into indomethacin (1 micro M). The sample is stored at -20° C. and radioimmunoassay for the stable metabolite 6-oxoPGF1a is performed. By comparison of the amount of 6-oxoPGF1a present in a sample incubated in the presence of compound to one incubated in the absence of compound, the prostacyclin synthase inhibitory properties of the compound may be assessed.

As usually defined, the IC50 is the point on the concentration scale where inhibition reaches its midpoint. Regarding `Cc1ccc(OC(C)(C)[C@H]2OC[C@@H](C/C=C\CCC(=O)O)[C@@H](c3cncs3)O2)c([N+](=O)[O-])c1` [Example 2], the Kb in assay [1] was 7.76 nM. Also, the 50% inhibitory concentration (IC50) in assay [2] was 16 nM; in assay [3] (human endothelial cells from umbilical vein, unit inferred), 211000 nM. Besides, in assay [3] (IC50 greater than 100 micro M deemed no significant inhibition), the “prostacyclin inhibitory properties, test (g)” value is “no significant prostacyclin inhibitory properties”.
